Test results reported in patent US20210236532A1, “THERAPEUTIC AGENT FOR FRONTOTEMPORAL LOBAR DEGENERATION, METHOD FOR SCREENING THERAPEUTIC AGENT FOR FRONTOTEMPORAL LOBAR DEGENERATION AND METHOD FOR TREATING FRONTOTEMPORAL LOBAR DEGENERATION” (National University Corporation Tokyo Medical and Dental …, priority 2018, published 2021).

What was measured:
Type in all cases: in vivo
[1] = tested on: PGRN-KI mice; experiment: Morris water maze test
Procedure: (§1) The following two types of behavioral experiments (fear conditioning experiment and Morris water maze test) were performed, and an impaired cognitive response was found in the PGRN-KI mice of 12 weeks or older. Such an impaired response is a symptom similarly seen in frontotemporal lobar degeneration. It is to be noted that all behavioral tests are carried out according to the method indicated by Ito H. et al. (Mol Psychiatry. 2015 April; 20 (4): 459-471).
A Morris water maze test was performed with the PGRN-KI mice and control mice (C57BL/6J mice without the knock-in). Specifically, the mice received a 60-second trial four times per day for 5 days, and the time period taken for each mouse to reach the platform was measured. […] This means that the cognitive response of the PGRN-KI mice was impaired as compared with the control mice.
(§2) The knockdown of each gene was performed according to the following procedures: Lentiviral particles (2×10^5 titer units/100 μl) containing scrambled shRNA (sc-108080, manufactured by Santa Cruz Biotechnology), Tau-shRNA (sc-430402-V, manufactured by Santa Cruz Biotechnology), B-Raf shRNA (sc-63294-V, manufactured by Santa Cruz Biotechnology), or Tyro3-siRNA (iV037848, manufactured by ABM) were diluted to 1:4 with ACSF buffer (NaCl 125 mM; KCl 2.5 mM; NaH2PO4 1.25 mM; MgCl2 1 mM; CaCl2) 1 mM; NaHCO326 mM; and glucose 25 mM). […]

[2] = tested on: PGRN-KI mice; experiment: Morphological analysis of spines (two-photon excitation microscope, IMARIS)
Procedure: as §2, with “mM). Further, a plasmid vector (10 μg) containing scrambled shRNA (TG501653, manufactured by OriGene), PKCα-shRNA (TG501653, manufactured by OriGene), or Gas6-shRNA (sc-35451-SH, manufactured by Santa Cruz Biotechnology) was dissolved in 100 μl of in vivo-jetPEI (201-10G, manufactured by Polyplus-transfection).” for “mM).”
Images of dendrites from the mice (at 12 weeks of age) knocked down for each gene were acquired using a two-photon excitation microscope. In addition, the number of spines was measured using “IMARIS software” (IMARIS 7.2.2, manufactured by Bitplane GmbH). […]
Images of dendrites from the mice (at 12 weeks of age) in each administered group were acquired using a two-photon excitation microscope. In addition, the number of spines was measured using “IMARIS software” (IMARIS 7.2.2, manufactured by Bitplane GmbH). […]

[3] = tested on: PGRN-KI mice; experiment: Fear conditioning experiment (freezing reaction)
Procedure: as §1
A fear conditioning experiment was performed with the PGRN-KI mice and control mice (C57BL/6J mice without the knock-in). Specifically, the mice received electrical stimulation (0.4 mA, 2 s) on their paws along with sound stimulation (65 dB white noise, 30 s). Twenty-four hours later, the frequency of the freezing reaction in the mice was measured when the mice were subjected to the sound stimulation without the electrical stimulation in the same chamber. […] This means that the cognitive response of the PGRN-KI mice was impaired as compared with the control mice. […]

[4] = PGRN-KI mice, treated vs untreated/unknocked-down PGRN-KI mice
[5] = control mice (C57BL/6J without the knock-in), with or without agent

With `Cn1c2ccccc2c2c3c(c4c5ccccc5n(CCC#N)c4c21)CNC3=O` [Go6976] the “cognitive response in the Morris water maze test” value [1, 4] was “significantly improved”, the “cognitive response in the Morris water maze test” value [1, 5] was “no change” and the number of spines ([2]; PGRN-KI mice at 12 weeks of age, treated vs untreated/unknocked-down PGRN-KI mice) was “markedly higher number of spines”. For the same compound, the number of spines ([2]; control mice (C57BL/6J without the knock-in) at 12 weeks of age, with or without agent) was “no change”, the “cognitive response in the fear conditioning experiment” value [3, 4] was “significantly improved” and the “cognitive response in the fear conditioning experiment” value [3, 5] was “no change”.
